Data from patent US11090319B2, “Therapeutic uses of pharmaceutical compositions comprising cyclic boronic acid ester derivatives” (Melinta Subsidiary Corp., priority 2010, dated 2021).

System: strains expressing KPC alone or in combination with additional beta-lactamases
Experiment: microbe, parasite or virus in culture
Type: cell-based
[1] = Enterobacter cloacae ECL1058, KPC-3, SHV-11, TEM-1, Compound 5 0.31 mg/L
[2] = Enterobacter cloacae ECL1058, KPC-3, SHV-11, TEM-1, Compound 5 0.625 mg/L
[3] = Enterobacter cloacae ECL1059, KPC-3, SHV-12, TEM-1, Compound 5 0.31 mg/L
[4] = Enterobacter cloacae ECL1059, KPC-3, SHV-12, TEM-1, Compound 5 0.625 mg/L
[5] = Enterobacter cloacae ECL1059, KPC-3, SHV-12, TEM-1, Compound 5 5 mg/L
[6] = Enterobacter cloacae ECL1059, KPC-3, SHV-12, TEM-1, Compound 5 10 mg/L
[7] = Enterobacter cloacae ECL1059, KPC-3, SHV-12, TEM-1, Compound 5 […]
[8] = Escherichia coli EC1007, KPC-3, Compound 5 0.31 mg/L
[9] = Escherichia coli EC1007, KPC-3, Compound 5 0.625 mg/L
[10] = Escherichia coli EC1007, KPC-3, Compound 5 5 mg/L
[11] = Escherichia coli EC1007, KPC-3, Compound 5 10 mg/L
[12] = Escherichia coli EC1007, KPC-3, Compound 5 […]
[13] = Klebsiella oxytoca KX1017, KPC-2, OXA-2, SHV-30, Compound 5 0.31 mg/L
[14] = Klebsiella oxytoca KX1017, KPC-2, OXA-2, SHV-30, Compound 5 0.625 mg/L
[15] = Klebsiella oxytoca KX1017, KPC-2, OXA-2, SHV-30, Compound 5 5 mg/L
[16] = Klebsiella oxytoca KX1017, KPC-2, OXA-2, SHV-30, Compound 5 10 mg/L
[17] = Klebsiella oxytoca KX1018, KPC-2, SHV-40, OXY-1, Compound 5 0.31 mg/L
[18] = Klebsiella oxytoca KX1018, KPC-2, SHV-40, OXY-1, Compound 5 0.625 mg/L
[19] = Klebsiella oxytoca KX1018, KPC-2, SHV-40, OXY-1, Compound 5 […]
[20] = Klebsiella oxytoca KX1019, KPC-2 OXA-2, Compound 5 0.625 mg/L
[21] = Klebsiella pneumoniae KP 1004, KPC-2, Compound 5 0.31 mg/L
[22] = Klebsiella pneumoniae KP 1004, KPC-2, Compound 5 0.625 mg/L
[23] = Klebsiella pneumoniae KP 1004, KPC-2, Compound 5 5 mg/L

SMILES: O=C(O)C[C@@H]1CC[C@H](NC(=O)Cc2cccs2)B(O)O1 [Compound 5, 2-((3R,6S)-2-hydroxy-3-(2-(thiophen-2-yl)acetamido)-1,2-oxaborinan-6-yl)acetic acid]
- potentiation of carbapenems: significantly potentiate multiple carbapenems
- MIC of Doripenem [1]: Y (MIC of 0.5 mg/L to 4 mg/L)
- MIC of Ertapenem [1]: Z (MIC of greater than 4 mg/L)
- MIC of Doripenem [2]: Y (MIC of 0.5 mg/L to 4 mg/L)
- MIC of Ertapenem [2]: Z (MIC of greater than 4 mg/L)
- MIC of Ertapenem (Enterobacter cloacae ECL1058, KPC-3, SHV-11, TEM-1, Compound 5 5 mg/L): X (MIC of less than 0.5 mg/L)
- MIC of Ertapenem (Enterobacter cloacae ECL1058, KPC-3, SHV-11, TEM-1, Compound 5 10 mg/L): X (MIC of less than 0.5 mg/L)
- MIC of Doripenem (Enterobacter cloacae ECL1058, KPC-3, SHV-11, TEM-1, Compound 5 […]): Y (MIC of 0.5 mg/L to 4 mg/L)
- MIC of Doripenem [3]: X (MIC of less than 0.5 mg/L)
- MIC of Ertapenem [3]: X (MIC of less than 0.5 mg/L)
- MIC of Doripenem [4]: X (MIC of less than 0.5 mg/L)
- MIC of Ertapenem [4]: X (MIC of less than 0.5 mg/L)
- MIC of Biapenem [5]: X (MIC of less than 0.5 mg/L)
- MIC of Doripenem [5]: X (MIC of less than 0.5 mg/L)
- MIC of Ertapenem [5]: X (MIC of less than 0.5 mg/L)
- MIC of Biapenem [6]: X (MIC of less than 0.5 mg/L)
- MIC of Doripenem [6]: X (MIC of less than 0.5 mg/L)
- MIC of Ertapenem [6]: X (MIC of less than 0.5 mg/L)
- MIC of Biapenem [7]: X (MIC of less than 0.5 mg/L)
- MIC of Doripenem [7]: X (MIC of less than 0.5 mg/L)
- MIC of Ertapenem [7]: X (MIC of less than 0.5 mg/L)
- MIC of Doripenem [8]: X (MIC of less than 0.5 mg/L)
- MIC of Ertapenem [8]: X (MIC of less than 0.5 mg/L)
- MIC of Doripenem [9]: X (MIC of less than 0.5 mg/L)
- MIC of Ertapenem [9]: X (MIC of less than 0.5 mg/L)
- MIC of Doripenem [10]: X (MIC of less than 0.5 mg/L)
- MIC of Ertapenem [10]: X (MIC of less than 0.5 mg/L)
- MIC of Biapenem [11]: X (MIC of less than 0.5 mg/L)
- MIC of Doripenem [11]: X (MIC of less than 0.5 mg/L)
- MIC of Ertapenem [11]: X (MIC of less than 0.5 mg/L)
- MIC of Doripenem [12]: X (MIC of less than 0.5 mg/L)
- MIC of Ertapenem [12]: X (MIC of less than 0.5 mg/L)
- MIC of Biapenem [13]: Y (MIC of 0.5 mg/L to 4 mg/L)
- MIC of Doripenem [13]: Y (MIC of 0.5 mg/L to 4 mg/L)
- MIC of Ertapenem [13]: Y (MIC of 0.5 mg/L to 4 mg/L)
- MIC of Doripenem [14]: Y (MIC of 0.5 mg/L to 4 mg/L)
- MIC of Ertapenem [14]: Y (MIC of 0.5 mg/L to 4 mg/L)
- MIC of Biapenem [15]: X (MIC of less than 0.5 mg/L)
- MIC of Doripenem [15]: X (MIC of less than 0.5 mg/L)
- MIC of Ertapenem [15]: X (MIC of less than 0.5 mg/L)
- MIC of Biapenem [16]: X (MIC of less than 0.5 mg/L)
- MIC of Doripenem [16]: X (MIC of less than 0.5 mg/L)
- MIC of Ertapenem [16]: X (MIC of less than 0.5 mg/L)
- MIC of Biapenem [17]: X (MIC of less than 0.5 mg/L)
- MIC of Doripenem [17]: X (MIC of less than 0.5 mg/L)
- MIC of Ertapenem [17]: X (MIC of less than 0.5 mg/L)
- MIC of Biapenem [18]: X (MIC of less than 0.5 mg/L)
- MIC of Doripenem [18]: X (MIC of less than 0.5 mg/L)
- MIC of Ertapenem [18]: X (MIC of less than 0.5 mg/L)
- MIC of Biapenem [19]: X (MIC of less than 0.5 mg/L)
- MIC of Doripenem [19]: X (MIC of less than 0.5 mg/L)
- MIC of Ertapenem [19]: X (MIC of less than 0.5 mg/L)
- MIC of Ertapenem (Klebsiella oxytoca KX1019, KPC-2 OXA-2, Compound 5 0.31 mg/L): Y (MIC of 0.5 mg/L to 4 mg/L)
- MIC of Doripenem [20]: Y (MIC of 0.5 mg/L to 4 mg/L)
- MIC of Ertapenem [20]: Y (MIC of 0.5 mg/L to 4 mg/L)
- MIC of Ertapenem (Klebsiella oxytoca KX1019, KPC-2 OXA-2, Compound 5 5 mg/L): X (MIC of less than 0.5 mg/L)
- MIC of Ertapenem (Klebsiella oxytoca KX1019, KPC-2 OXA-2, Compound 5 10 mg/L): X (MIC of less than 0.5 mg/L)
- MIC of Ertapenem (Klebsiella oxytoca KX1019, KPC-2 OXA-2, Compound 5 […]): Y (MIC of 0.5 mg/L to 4 mg/L)
- MIC of Biapenem [21]: X (MIC of less than 0.5 mg/L)
- MIC of Doripenem [21]: X (MIC of less than 0.5 mg/L)
- MIC of Ertapenem [21]: Y (MIC of 0.5 mg/L to 4 mg/L)
- MIC of Biapenem [22]: X (MIC of less than 0.5 mg/L)
- MIC of Doripenem [22]: X (MIC of less than 0.5 mg/L)
- MIC of Ertapenem [22]: Y (MIC of 0.5 mg/L to 4 mg/L)
- MIC of Biapenem [23]: X (MIC of less than 0.5 mg/L)
- MIC of Doripenem [23]: X (MIC of less than 0.5 mg/L)
